Counter-ions that a name gives are not always drawn.
Experiments:
[1] = molecular target: T1, PIM1 serine/threonine kinase (Homo sapiens, UniProt P11309); assay: PIM1 serine/threonine kinase inhibitory effect; type: biochemical; details: PIM1 serine/threonine kinase activity; ATP 40 μM; 30° C., 30 minutes
T1 construct: purchased Carna Bioscience, Inc
Procedure, shortened: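 Compounds were tested in duplicate from 0.01 to 10000 nM final against PIM1 kinase (0.15 μg/ml). The reaction ran for 30 minutes at 30° C with 40 μM ATP and 0.5 μM biotin-tagged substrate at pH 7.0. Phosphorylation was read by time-resolved FRET (OD665/OD620) after 1 h; IC50 by non-linear fit.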

[2] = molecular target: PIM1 transgenic cells (Ba/F3) (Homo sapiens, UniProt P11309); assay: Proliferation inhibitory effect on PIM1 transgenic cells; type: cell-based, mouse; details: proliferation inhibition, 72 hours, Cell Counting Kit-8, read-out: PIM1 IC50
PIM1 transgenic cells (Ba/F3), sequence (P11309 whole entry, stated change not applied): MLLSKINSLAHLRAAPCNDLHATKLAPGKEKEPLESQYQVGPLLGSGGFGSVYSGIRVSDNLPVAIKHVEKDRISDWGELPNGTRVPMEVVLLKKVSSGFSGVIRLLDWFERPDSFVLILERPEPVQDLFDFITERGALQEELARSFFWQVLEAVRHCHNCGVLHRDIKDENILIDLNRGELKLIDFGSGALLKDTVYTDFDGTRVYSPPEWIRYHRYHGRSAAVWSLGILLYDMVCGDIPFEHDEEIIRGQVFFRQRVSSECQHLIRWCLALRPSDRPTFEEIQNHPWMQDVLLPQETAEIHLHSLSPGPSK
Procedure, shortened: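 Mouse Ba/F3 pro-B cells were retrovirally transduced with human PIM1 so that their proliferation depends on PIM1. Cells were treated with compound at 1–10000 nM final for 72 h, then read by CCK-8 (OD450−OD650). Inhibition was set against DMSO (0%) and no-cell blank (100%), and IC50 was obtained by two-parameter logistic regression.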

T1 sequence (P11309 whole entry): as the sequence (P11309 whole entry, stated change not applied) above

IC50 [1] [nM] | GI50 [2] [nM] | Structure (SMILES)
21 | 570 | N[C@H]1CCCN(CCNc2cc(-c3n[nH]c(=O)o3)ccc2C(F)(F)F)C1 [Example 73, 5-[3-({2-[(3S)-3-aminopiperidin-1-yl]ethyl}amino)-4-(trifluoromethyl)phenyl]-1,3,4-oxadiazol-2(3H)-one dihydrochloride]
3.9 | 97 | Cc1c(F)cc(-c2n[nH]c(=O)o2)cc1N[C@@H](C)C1CCNCC1 [Example 99, 5-(3-fluoro-4-methyl-5-{[(1S)-1-(piperidin-4-yl)ethyl]amino}phenyl)-1,3,4-oxadiazol-2(3H)-one dihydrochloride]
29 | 1000 | N[C@H]1CO[C@H](C2CC2c2cc(-c3n[nH]c(=O)o3)ccc2C(F)(F)F)OC1 (stereo partly shown) [Example 161, 5-[3-{2-[(2r,5r)-5-amino-1,3-dioxan-2-yl]cyclopropyl}-4-(trifluoromethyl)phenyl]-1,3,4-oxadiazol-2(3H)-one hydrochloride]
4 | 110 | COc1c(Cl)cc(-c2n[nH]c(=O)o2)cc1N[C@@H](C)C1CCNCC1 [Example 104, 5-(3-chloro-4-methoxy-5-{[(1S)-1-(piperidin-4-yl)ethyl]amino}phenyl)-1,3,4-oxadiazol-2(3H)-one hydrochloride]
3.6 | 54 | CN[C@H]1C[C@@H]([C@H](C)Nc2cc(-c3n[nH]c(=O)o3)cc(F)c2C(F)(F)F)C1 [Example 203, 5-[3-fluoro-5-({(1S)-1-[(1s,3R)-3-(methylamino)cyclobutyl]ethyl}amino)-4-(trifluoromethyl)phenyl]-1,3,4-oxadiazol-2(3H)-one hydrochloride]
20 | 550 | N[C@H]1CC[C@H](Nc2cc(-c3n[nH]c(=O)o3)ccc2OC(F)(F)F)CC1 [Example 38, 5-[3-{[(1r,4r)-4-aminocyclohexyl]amino}-4-(trifluoromethoxy)phenyl]-1,3,4-oxadiazol-2(3H)-one hydrochloride]
3.7 | 1800 | O=c1[nH]nc(-c2ccc(Br)c(NCC3CCNCC3)c2)o1 [Example 50, 5-(4-bromo-3-{[(piperidin-4-yl)methyl]amino}phenyl)-1,3,4-oxadiazol-2(3H)-one hydrochloride]
28 | 480 | O=c1[nH]nc(-c2ccc(C(F)(F)F)c(NCC3(F)CCCNC3)c2)o1 (stereo not shown) [Example 109, 5-[3-{[(3-fluoropiperidin-3-yl)methyl]amino}-4-(trifluoromethyl)phenyl]-1,3,4-oxadiazol-2(3H)-one hydrochloride]
9 | 1300 | O=c1[nH]nc(-c2ccc(C(F)(F)F)c(NCCC3CCNCC3)c2)o1 [Example 64, 5-[3-{[2-(piperidin-4-yl)ethyl]amino}-4-(trifluoromethyl)phenyl]-1,3,4-oxadiazol-2(3H)-one hydrochloride]
13 | 3100 | O=c1[nH]nc(-c2ccc(C(F)(F)F)c(NCCC3CCCNC3)c2)o1 (stereo not shown) [Example 60, 5-[3-{[2-(piperidin-3-yl)ethyl]amino}-4-(trifluoromethyl)phenyl]-1,3,4-oxadiazol-2(3H)-one hydrochloride]
9.2 | 190 | NC1CC2(C1)CC(Nc1cc(-c3n[nH]c(=O)o3)ccc1C(F)(F)F)C2 (stereo not shown) [Example 43, 5-{3-[(6-aminospiro[3.3]heptan-2-yl)amino]-4-(trifluoromethyl)phenyl}-1,3,4-oxadiazol-2(3H)-one hydrochloride]
26 | 4100 | O=c1[nH]nc(-c2cc(Br)c3cnn(CC4CCNCC4)c3c2)o1 [Example 124, 5-{4-bromo-1-[(piperidin-4-yl)methyl]-1H-indazol-6-yl}-1,3,4-oxadiazol-2(3H)-one hydrochloride]
6.2 | 730 | N[C@H]1CC[C@@H](Nc2cc(-c3n[nH]c(=O)o3)ccc2Cl)CC1 [Example 33, 5-(3-{[(1s,4s)-4-aminocyclohexyl]amino}-4-chlorophenyl)-1,3,4-oxadiazol-2(3H)-one hydrochloride]
9.2 | 250 | C[C@H](Nc1cc(-c2n[nH]c(=O)o2)ccc1C(F)(F)F)[C@H]1C[C@@H](NCC2CC2)C1 [Example 196, 5-[3-{[(1S)-1-{(1s,3R)-3-[(cyclopropylmethyl)amino]cyclobutyl}ethyl]amino}-4-(trifluoromethyl)phenyl]-1,3,4-oxadiazol-2(3H)-one hydrochloride]
30 | 540 | CC(C)(CN)C1CCN(c2cc(-c3n[nH]c(=O)o3)ccc2C(F)(F)F)CC1 [Example 13, 5-{3-[4-(1-amino-2-methylpropan-2-yl)piperidin-1-yl]-4-(trifluoromethyl)phenyl}-1,3,4-oxadiazol-2(3H)-one]
9.1 | 380 | C[C@H](Nc1cc(-c2n[nH]c(=O)o2)ccc1C(F)(F)F)C1CC2(CNC2)C1 [Example 149, 5-[3-{[(1S)-1-(2-azaspiro[3.3]heptan-6-yl)ethyl]amino}-4-(trifluoromethyl)phenyl]-1,3,4-oxadiazol-2(3H)-one trifluoroacetate]
2 | 24 | O=c1[nH]nc(-c2cc(F)c(C(F)(F)F)c(N[C@@H](C(F)F)C3(F)CCNCC3)c2)o1 [Example 163, 5-[3-{[(1R)-2,2-difluoro-1-(4-fluoropiperidin-4-yl)ethyl]amino}-5-fluoro-4-(trifluoromethyl)phenyl]-1,3,4-oxadiazol-2(3H)-one hydrochloride]
10 | 250 | CCOc1c(F)cc(-c2n[nH]c(=O)o2)cc1N[C@@H](C)[C@H]1CC[C@H](N)CC1 [Example 173, 5-[3-({(1S)-1-[(1r,4S)-4-aminocyclohexyl]ethyl}amino)-4-ethoxy-5-fluorophenyl]-1,3,4-oxadiazol-2(3H)-one dihydrochloride]
2.2 | 30 | C[C@H](Nc1cc(-c2n[nH]c(=O)o2)cc(F)c1OC(F)(F)F)[C@H]1C[C@@H](N)C1 [Example 180, 5-[3-({(1S)-1-[(1s,3R)-3-aminocyclobutyl]ethyl}amino)-5-fluoro-4-(trifluoromethoxy)phenyl]-1,3,4-oxadiazol-2(3H)-one hydrochloride]
8.7 | 560 | C[C@H](Nc1cc(-c2n[nH]c(=O)o2)ccc1C(F)(F)F)[C@H]1CC[C@H](NCCO)CC1 [Example 201, 5-[3-{[(1S)-1-{(1r,4S)-4-[(2-hydroxyethyl)amino]cyclohexyl}ethyl]amino}-4-(trifluoromethyl)phenyl]-1,3,4-oxadiazol-2(3H)-one hydrochloride]
7 | 200 | CCC(Nc1cc(-c2n[nH]c(=O)o2)ccc1C(F)(F)F)C1CCNCC1 (stereo not shown) [Example 56, 5-[3-{[1-(piperidin-4-yl)propyl]amino}-4-(trifluoromethyl)phenyl]-1,3,4-oxadiazol-2(3H)-one hydrochloride]
8.7 | 110 | C[C@H](Nc1cc(-c2n[nH]c(=O)o2)ccc1C(F)(F)F)C12CCC(N)(CC1)C2 [Example 187, 5-[3-{[(1S)-1-(4-aminobicyclo[2.2.1]heptan-1-yl)ethyl]amino}-4-(trifluoromethyl)phenyl]-1,3,4-oxadiazol-2(3H)-one hydrochloride]
2.2 | 44 | CN[C@H]1CC[C@H]([C@H](C)Nc2cc(-c3n[nH]c(=O)o3)ccc2C(F)(F)F)CC1 [Example 189, 5-[3-({(1S)-1-[(1r,4S)-4-(methylamino)cyclohexyl]ethyl}amino)-4-(trifluoromethyl)phenyl]-1,3,4-oxadiazol-2(3H)-one hydrochloride]
1.2 | 64 | C[C@H](Nc1c(F)c(-c2n[nH]c(=O)o2)cc(Cl)c1Cl)C1CCNCC1 [Example 87, 5-(4,5-dichloro-2-fluoro-3-{[(1S)-1-(piperidin-4-yl)ethyl]amino}phenyl)-1,3,4-oxadiazol-2(3H)-one hydrochloride]
5.8 | 92 | C[C@H](Nc1cc(-c2n[nH]c(=O)o2)ccc1C(F)(F)F)[C@@H]1[C@@H]2CC[C@H]1CNC2 [Example 155, 5-[3-({(1S)-1-[(1R,5S,8r)-3-azabicyclo[3.2.1]octan-8-yl]ethyl}amino)-4-(trifluoromethyl)phenyl]-1,3,4-oxadiazol-2(3H)-one hydrochloride]
21 | 440 | O=c1[nH]nc(-c2ccc(C(F)(F)F)c(NC[C@@H]3CCNC[C@H]3F)c2)o1 [Example 127, 5-[3-({[(3S,4S)-3-fluoropiperidin-4-yl]methyl}amino)-4-(trifluoromethyl)phenyl]-1,3,4-oxadiazol-2(3H)-one hydrochloride]
2 | 23 | C[C@H](Nc1cc(-c2n[nH]c(=O)o2)cc(Cl)c1Cl)[C@H]1C[C@@H](N)C1 [Example 179, 5-[3-({(1S)-1-[(1s,3R)-3-aminocyclobutyl]ethyl}amino)-4,5-dichlorophenyl]-1,3,4-oxadiazol-2(3H)-one dihydrochloride]
11 | 600 | O=c1[nH]nc(-c2ccc(C(F)(F)F)c(NC[C@H]3CCNC[C@H]3F)c2)o1 [Example 126, 5-[3-({[(3S,4R)-3-fluoropiperidin-4-yl]methyl}amino)-4-(trifluoromethyl)phenyl]-1,3,4-oxadiazol-2(3H)-one hydrochloride]
1.9 | 87 | N[C@H]1CC[C@H](COc2cc(-c3n[nH]c(=O)o3)ccc2C(F)(F)F)CC1 [Example 240, 5-[3-{[(1r,4r)-4-aminocyclohexyl]methoxy}-4-(trifluoromethyl)phenyl]-1,3,4-oxadiazol-2(3H)-one]
